Results published in US8790653B2, “Peptide inhibitors for mediating stress responses” (Yeda Research and Development Co. Ltd., priority 2004, dated 2014).
Where no end group is shown, it is not given here. [ ]: non-standard residue; d: D form.

Assays:
L12 cells with p53 = test: Hyperthermia-induced cell death in L12 cells with active p53 (trypan blue); type: cell-based; conditions: 2 hours at 42° C., peptide 100 μg/ml
Procedure: The selected candidate peptides were tested for their ability to interfere with the p53-mediated cellular stress response by testing their capacity to inhibit the response to hyperthermia of the L12 cell line (Wolf, 1984), which lacks endogenous p53 activity and had been stably transfected with the p53 gene or a control vector. In these cells, p53 activity induces growth arrest and cell survival rather than apoptosis in response to hyperthermia (Nitta, 1997).
The amount of cell death was assessed by staining the cells with the vital dye trypan blue (Sigma) and counting the ratio of dead/live cells per visual field with a light microscope.
incubation for 2 hours at 42° C. induced death of all cells that lacked p53 and, in contrast, transient growth arrest and survival of about 80% of the cells with active p53. Four peptides, designated Stressin-1 to −4 (for STress RESponse Specific peptide INhibitor), were identified that at concentrations of 100 μg/ml inhibited p53-mediated growth arrest after hyperthermia and induced death of almost all cells with active p53, which is the response of L12 cells that lack p53 activity (Table 1); the peptide sequences are shown in Table 2.

L12 cells = test: Cisplatin-induced p53-mediated cell death of L12 cells (DNA content, propidium iodide, FACS); type: cell-based; conditions: 50 μM Cisplatin, 48 hours
Procedure: L12 cells were treated for 48 hours with 50 μM of the DNA-damaging agent Cisplatin and p53-mediated cell death was determined by measuring the DNA content of cells stained with propidium iodide (FIG. 1). Cells incubated in the absence of peptide responded to Cisplatin treatment with p53-mediated cell death.

[1] = Ethanol toxic stress in primary hepatocyte cultures (trypan blue exclusion); type: cell-based; conditions: primary hepatocyte cultures
Procedure: (§1) To learn whether Stressin peptide may protect from toxic stress, primary hepatocyte cultures were incubated with or without ethanol at a concentration of 0.6%, and with 50 μM Stressin-1 or without peptide. After 48 hours, the numbers of dead and alive cells were determined by trypan blue exclusion (Table 3).

[2] = test system: primary hepatocyte cultures; test: as above; type: cell-based; conditions: with 0.6% ethanol; 50 μM peptide; 48 hours
Procedure: as §1

BALB/c mice = test: Whole body γ-irradiation of BALB/c mice (radiation disease); type: in vivo; conditions: 6.5 Gy, 500 μg/mouse intraperitoneally one hour after irradiation
From the text: To test whether Stressin peptide may protect an organism from death by excessive p53 activation and tissue failure by subjecting BALB/c mice to whole body […] (6.5 Gy). A retro-inverso peptide was used to determine whether prolonged in vivo half-life would give an advantage (see Example 6); retro-inverso peptides are resistant to proteases and consist of D-amino acids in reversed order, resulting in an altered peptide backbone but unchanged orientation of the side chains (Van Regenmortel, 1998).
BALB/c mice were subjected to whole body γ-irradiation (6.5 Gy). One hour after irradiation, the mice received intraperitoneally either Stressin-1 (n=7; SEQ ID NO:1) or a modified, retro-inverso Stressin-1 peptide (n=7; SEQ ID NO:5), both at a concentration of 500 μg/mouse, or a sham injection with saline (n=6). The retro-inverso peptide was used to determine whether prolonged in vivo-half-life would give an advantage.

With DLSTDALHYRTA [Stressin-2] the “Incidence of cell death induced by hyperthermia” value (shortened to “Incidence of cell death induced”) (L12 cells with p53) was 90% and the “cells rescued from p53-mediated cell death” value (L12 cells) was 25%.

Work on LPPLPYP [Stressin-1, LPPLPYP] yielded a viability at 48 h, 50 µM [1] of 100% and a Survival of hepatocytes [2] of 20%.

In the case of SSLSVDYPTRYP [Stressin-4], the “Incidence of cell death induced” value (L12 cells with p53) is reported as 80%.

With HPTNQQSLWRWP [Stressin-3] the “Incidence of cell death induced” value (L12 cells with p53) was 80%.

In the case of “PYPLPPL ([dP][dY][dP][dL][dP][dP][dL]; also: retro-inverso) [modified Stressin-1 peptide, retro-inverso Stressin-1 peptide, D-amino acids in reversed order]”, the mice dead (BALB/c mice; after 17 days) is reported as 29% and the “mice recovered from radiation disease” value (BALB/c mice; after 40 days) is reported as 57%.
